This note sets out measurements from ChEMBL document CHEMBL4842336, “Synthesis and computational studies of novel fused pyrimidinones as a promising scaffold with analgesic, anti-inflammatory and COX inhibitory potential” (Eur J Med Chem, 2021).

Data set [1] relates to Rattus norvegicus. The experiment in a line: Analgesic activity against p-benzoquinone induced writhing in albino rat model assessed as protection rate at 28 uM/kg, ip measured after 30 mins relative to indomethacin. Type of data set: functional. To be noted: 0.5 h, at 28 µmol/kg.
The subject of data set [2] is Rattus norvegicus. The data set is described as follows: Analgesic activity against p-benzoquinone induced writhing in albino rat model assessed as protection rate at 28 uM/kg, ip measured after 30 mins relative to control. The following applies: 0.5 h, at 28 µmol/kg. Type of data set: functional.
The test system of data set [3] is Rattus norvegicus. The data set is described as follows: Anti-inflammatory activity in Wistar albino rat model of carragenan-induced paw edema assessed as reduction in edema thickness at 28 uM/kg, ip measured after 2 hrs by plethysmometer (Rvb =1.6 +/- 0.12 millimeter). Type of data set: functional.
Data set [4] deals with T1, Prostaglandin G/H synthase 1 (Ovis aries, UniProt P05979).
T1 sequence (P05979 whole entry): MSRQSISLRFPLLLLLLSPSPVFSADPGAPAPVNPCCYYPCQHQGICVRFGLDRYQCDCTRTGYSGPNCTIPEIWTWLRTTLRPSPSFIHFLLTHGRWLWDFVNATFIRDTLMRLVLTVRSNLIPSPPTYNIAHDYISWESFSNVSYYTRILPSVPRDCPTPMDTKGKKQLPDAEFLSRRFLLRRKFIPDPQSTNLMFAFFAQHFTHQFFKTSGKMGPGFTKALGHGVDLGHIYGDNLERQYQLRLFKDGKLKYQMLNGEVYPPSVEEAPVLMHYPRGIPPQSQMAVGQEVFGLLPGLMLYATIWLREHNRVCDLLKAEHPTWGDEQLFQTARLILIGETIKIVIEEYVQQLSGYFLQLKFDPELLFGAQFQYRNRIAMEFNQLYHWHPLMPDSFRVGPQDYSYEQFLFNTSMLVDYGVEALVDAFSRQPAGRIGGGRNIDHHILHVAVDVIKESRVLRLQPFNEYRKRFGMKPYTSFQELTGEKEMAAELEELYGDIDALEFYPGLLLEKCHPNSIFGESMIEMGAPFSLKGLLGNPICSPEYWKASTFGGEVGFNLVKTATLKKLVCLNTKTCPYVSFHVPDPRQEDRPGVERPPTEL
The data set is described as follows: Inhibition of ovine COX-1 using arachidonic acid as substrate by fluorescence assay.

Data set [5] concerns Rattus norvegicus. The data set is described as follows: Anti-inflammatory activity in Wistar albino rat model of carragenan-induced paw edema assessed as inhibition of inflammation at 28 uM/kg, ip measured after 2 hrs by plethysmometer relative to control. Type of data set: functional.
In data set [6] the test system is Rattus norvegicus. The experiment in a line: Anti-inflammatory activity in Wistar albino rat model of carragenan-induced paw edema assessed as reduction in edema thickness at 28 uM/kg, ip measured after 3 hrs by plethysmometer (reference value: 1.64 +/- 0.04 millimeter). Type of data set: functional. On the set-up: scale not given: the % may be the effect or the level left. To be noted: at 28 µmol/kg.

The nature of data set [7]: Toxicity in albino rat assessed as decrease in body weight at. The following applies: in vivo, 24 h, dose <140 µM/Kg.
Data set [8] is described as follows: Ulcerogenic activity in fasted albino rat assessed as severity of ulcers at 28 uM/kg, po administered for 3 consecutive days (reference value: 0 %). The class given is toxicity, organism-based. The following applies: in vivo, 72 h, time 3 day.
The nature of data set [9]: Ulcerogenic activity in fasted albino rat assessed as ulcer index at 28 uM/kg, po administered for 3 consecutive days (reference value: 0). Type of data set: toxicity, organism-based. The following applies: in vivo, 72 h, time 3 day.
A short description of data set [10]: Ulcerogenic activity in fasted albino rat assessed as number of ulcers at 28 uM/kg, po administered for 3 consecutive days (reference value: 0 %). Type of data set: toxicity, organism-based. The following applies: in vivo, 72 h, time 3 day.
The subject of data set [11] is Rattus norvegicus. The data set is described as follows: Anti-inflammatory activity Wistar albino rat model of carragenan-induced paw edema assessed as inhibition of inflammation at 28 uM/kg, ip measured after 3 hrs by plethysmometer relative to control. The class given is functional. On the set-up: scale not given: the % may be the effect or the level left. The following applies: at 28 µmol/kg.

The nature of data set [12]: Ulcerogenic activity in fasted albino rat assessed as incidence of ulceration at 28 uM/kg, po administered for 3 consecutive days (reference value: 0 %). Type of data set: toxicity, organism-based. The following applies: in vivo, 72 h, time 3 day.

Take `Cc1nc2sc(-c3ccc(Cl)cc3)nn2c(=O)c1CCN1CCN(c2ccccc2)CC1`: the Activity in the data set with Rattus norvegicus [1] turned out to be 60%; with Rattus norvegicus [2], 66%.
With `Cc1nc2oc(-c3ccc(Cl)cc3)nn2c(=O)c1CCN1CCN(c2ccccc2)CC1`, the Activity in the data set with Rattus norvegicus [3] is 0.08 mm; in the data set on Rattus norvegicus [5], 0.48 mm; in the data set on Rattus norvegicus [6], 94.75%; in [7], “Non-Toxic”; with Rattus norvegicus [1], 100%; in data set [8], 1%. The Activity in the data set with Rattus norvegicus [2] is reported as 83%; in data set [10], 0.6%; with Rattus norvegicus [11] it was 70.73%; in data set [12] it was 4%. The compound further came in with a half-inhibitory concentration (IC50) in data set [4] of 148 nM. Besides, the UI in data set [9] was 5.6.
In the case of `COc1ccc(N2CCN(CCc3c(C)nc4sc(-c5ccc(Cl)cc5)nn4c3=O)CC2)cc1`, the Activity is recorded as 60% with Rattus norvegicus [1] and 66% in the data set with Rattus norvegicus [2].
The corresponding values for `Cc1nc2oc(-c3ccccc3)nn2c(=O)c1CCN1CCOCC1` are 60% and 50%.
The corresponding values for `Cc1nc2oc(-c3ccc(Cl)cc3)nn2c(=O)c1CCN1CCOCC1` are 80% and 66%.
`COc1ccc(N2CCN(CCc3c(C)nc4oc(-c5ccc(Cl)cc5)nn4c3=O)CC2)cc1`: the Activity with Rattus norvegicus [3] is given as 0.43 mm; in the data set with Rattus norvegicus [5], 0.14 mm; with Rattus norvegicus [6], 73.12%; in [7], “Non-Toxic”; in the data set on Rattus norvegicus [1], 100%; in data set [8], 1%. Besides, the Activity stood at 83% in the data set on Rattus norvegicus [2], 0.8% in [10], 91% in the data set on Rattus norvegicus [11] and 4% in [12]. Also, the IC50 in data set [4] was determined as 350 nM. In addition, in [9], the UI is on record as 5.8.
For the compound `Cc1nc2sc(-c3ccc(Cl)cc3)nn2c(=O)c1CCN1CCCCC1`, the Activity with Rattus norvegicus [1] is listed as 60%; in the data set on Rattus norvegicus [2] it was 50%.
On to `COc1ccc2c(c1)c(CC(=O)O)c(C)n2C(=O)c1ccc(Cl)cc1` [INDOMETHACIN], for which the Activity with Rattus norvegicus [3] is 0.42 mm; with Rattus norvegicus [5], 0.55 mm; with Rattus norvegicus [6], 73.29%; with Rattus norvegicus [1], 100%; in data set [8], 1.18%; in the data set with Rattus norvegicus [2], 83%. Also, the Activity in data set [10] was determined as 2.6%; in the data set with Rattus norvegicus [11], 66.46%; in data set [12], 8%. Moreover, the UI in [9] amounted to 11.78.
Consider `Cc1nc2sc(-c3ccc(Cl)cc3)nn2c(=O)c1CCN1CCOCC1`, for which the figures for the Activity in the data set on Rattus norvegicus [1] and in the data set on Rattus norvegicus [2] were 80% and 66%, respectively.
The corresponding values for `Cc1nc2oc(-c3ccc(Cl)cc3)nn2c(=O)c1CCN1CCCCC1` are 80% and 66%.
Regarding `Cc1nc2oc(-c3ccccc3)nn2c(=O)c1CCN1CCCCC1`, the Activity in the data set with Rattus norvegicus [3] was 0.38 mm; in the data set with Rattus norvegicus [5] it was 0.7 mm; with Rattus norvegicus [6], 76.25%; in data set [7], “Non-Toxic”; in the data set on Rattus norvegicus [1], 100%; in data set [8] it was 1.2%. In addition, the Activity in the data set on Rattus norvegicus [2] was 83%; in data set [10] it was 2.2%; in the data set on Rattus norvegicus [11], 56.16%; in data set [12], 4%. The IC50 in [4] was found to be 350 nM. Besides, in [9], the UI was determined as 7.4.
For `Cc1nc2oc(-c3ccccc3)nn2c(=O)c1CCN1CCN(c2ccccc2)CC1`, the Activity was 60% in the data set with Rattus norvegicus [1] and 50% in the data set with Rattus norvegicus [2].
On to `COc1ccc(N2CCN(CCc3c(C)nc4oc(-c5ccccc5)nn4c3=O)CC2)cc1`, for which the Activity was 0.43 mm in the data set with Rattus norvegicus [3]; 0.62 mm in the data set on Rattus norvegicus [5]; 73.12% in the data set with Rattus norvegicus [6]; “Non-Toxic” in data set [7]; 120% with Rattus norvegicus [1]; 1% in data set [8]. In addition, the Activity in the data set with Rattus norvegicus [2] is 100%; in data set [10] it was 0.8%; in the data set with Rattus norvegicus [11] it was 61.7%; in [12] it was 2%. Further, the IC50 in [4] was determined as 140 nM. For the same compound, the UI in data set [9] was found to be 3.8.
